Each structure is given as a SMILES string. Values joined by “and” are separate entries in the source; they are usually repeats but may differ in a detail not shown here. Equal values may be shown once.

One molecule from patent US20240025886A1, “INHIBITORS OF IGF2BP1-RNA BINDING” (YISSUM RESEARCH DEVELOPMENT COMPANY OF THE HEBREW …, priority 2020, published 2024) can be followed below.

The subject of series [1] is H1299 cells. Put plainly: Cell proliferation assay (Incucyte), H1299 cells. In kind it is cell-based, human. The following applies: H1299, up to 20 mM 7773. The method, then: ES2, H1299 and HEK293 cells were seeded in a 96 well plate (5×10^3 cells per well) for 24 hours before adding the compound at increasing concentrations. After an additional 24 hours, the plate was incubated in an IncuCyte® S3 Live-Cell Analysis System (Essen BioScience). The wells were filmed for 72 hours, and then analyzed for proliferation rate Using IncuCyte® S3 Live-Cell Analysis System (Essen BioScience)

The next series has as its target La binding to Bcl2 RNA (Homo sapiens, UniProt P05455). Nature of the series: FP counter assay, La binding to Bcl2 RNA.
Series [2] deals with T1, Igf2bp1 binding to Kras 6 RNA (Homo sapiens, UniProt Q9NZI8).
T1 construct: Recombinant full-length Igf2bp1 protein; made in house; host or cells: E. coli BL21(DE3)
T1 sequence (Q9NZI8 whole entry): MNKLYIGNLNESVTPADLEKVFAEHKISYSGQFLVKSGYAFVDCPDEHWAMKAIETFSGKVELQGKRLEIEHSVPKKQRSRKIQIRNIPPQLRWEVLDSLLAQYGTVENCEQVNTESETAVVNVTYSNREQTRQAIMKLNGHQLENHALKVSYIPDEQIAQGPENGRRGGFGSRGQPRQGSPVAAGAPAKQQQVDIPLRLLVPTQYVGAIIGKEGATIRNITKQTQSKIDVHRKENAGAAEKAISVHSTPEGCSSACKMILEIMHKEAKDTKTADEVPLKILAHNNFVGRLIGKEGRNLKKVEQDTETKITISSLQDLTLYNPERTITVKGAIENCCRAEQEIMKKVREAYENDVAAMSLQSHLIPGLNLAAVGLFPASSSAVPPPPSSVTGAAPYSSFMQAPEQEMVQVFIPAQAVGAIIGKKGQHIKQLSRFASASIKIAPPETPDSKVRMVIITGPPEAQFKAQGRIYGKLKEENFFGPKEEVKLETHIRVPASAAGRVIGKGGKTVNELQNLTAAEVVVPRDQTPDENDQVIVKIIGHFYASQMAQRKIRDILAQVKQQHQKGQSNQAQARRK
Put plainly: Fluorescence polarization (FP) assay of Igf2bp1 binding to fluorescent Kras 6 RNA. The following applies: FP dose response; read-out: IC50 for inhibition of Igf2bp1 binding to Kras 6 RNA. The method, then: For the small molecule screen, compounds were obtained from the collection maintained at the Grand Israel National Center for Personalized Medicine, consisting of molecules purchased from commercial vendors. Labelled RNA (10 nM) was incubated with recombinant Igf2bp1 protein (400 nM) in FAM-RNA buffer (10 mM Tris pH 8.0, 75 mM KCl, 0.5 mM EDTA, 1 mM DTT, 0.0188 U/μL RNAsin, 0.0005 μg/mL heparin, 0.0001 μg/μL tRNA, 0.01% Triton X-100, 3 mM MgCl2, 0.05% IGEPAL) at room temperature for 15 min. […] of this reaction mix was aliquoted with GNF WDII (USA) into wells of 1536 well plates, with a final concentration of […] compound or DMSO. The plates were spun down and read in a BMG Pherastar FS (Germany) plate reader plate reader, in FP mode with a 485/520/520 polarization filter, calibrated to 35 mP for free fluorescein with similar total intensity as experimental samples. […]
To determine the quality of the inventors screening assay, the Z′ factor for each plate was calculated with a Z′ factor greater than 0.5 indicating a robust assay suitable for high throughput screening. Compounds that altered the overall fluorescence intensity compared to controls were considered auto florescence and excluded from further analysis. […] Any small molecule that causes a change of more than three standard deviations from the mean is determined appropriate for further investigation.

For the next series, the target named is T2, Igf2bp1 KH34 di-domain (Homo sapiens, UniProt Q9NZI8).
T2 construct: KH34 (P387-A574); 6xHis (N, cleaved yes); made in house; host or cells: E. coli BL21(DE3)
T2 sequence (Q9NZI8 387-574): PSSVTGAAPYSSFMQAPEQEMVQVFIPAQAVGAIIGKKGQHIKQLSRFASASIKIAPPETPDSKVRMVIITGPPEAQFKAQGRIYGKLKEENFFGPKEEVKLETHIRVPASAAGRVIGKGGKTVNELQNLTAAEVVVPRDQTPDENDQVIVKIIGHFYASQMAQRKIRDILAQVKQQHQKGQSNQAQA
Nature of the series: MST binding to Igf2bp1 di-domain KH34. The method, then: Recombinant full-length Igf2bp1 protein was labelled with RED-tris-NTA dye using a Monolith NT His-Tag Labelling Kit (NanoTemper) while RRM12, KH12 and KH34 di-domain peptides were labelled using the Protein Labeling Kit RED NHS 2nd generation (NanoTemper). Labelled proteins were spun at 15,000 g for 5 min to eliminate aggregates. All samples were 2× labelled protein mix of Igf2bp1 (200 nM) in PBST and were combined (1:1) with serial dilutions of compound or Kras6 RNA in binding buffer (10 mMTris pH=7.5, 100 mM NaCl, 0.1 mM EDTA, 0.06% IPEGAL, 0.02 μg/μL tRNA, 2 mM DTT, 0.1 μg/μL heparin) in final volume of 20 μL, room temperature for 15 min. Samples were then loaded into standard capillaries (NanoTemper) and read in the Monolith NT.115 scanner (NanoTemper) using the red filter with reading conditions of 95% LED power and 40% MST power, 5 sec fluorescence before, 30 sec MST on, 5 sec fluorescence after and 25 sec delay between samples. Results were analyzed using the MO Control software (NanoTemper) for curve fitting to KD.

Series [3] has as its system H1299 cells. Nature of the series: Wound healing (cell migration) assay, H1299 cells. In kind it is cell-based, human. The method, then:
Cells were seeded in 96 IncuCyte® ImageLock plates (20×10^3 cells per well) for 24 hours, to a near confluency of 95%, before the addition of increasing concentrations of compound. After a further 24 hours, wells were scratched using the IncuCyte® 96-well WoundMaker Tool, and the cells cultured for an additional 48 hours using the IncuCyte® S3 Live-Cell Analysis System (Essen BioScience). The plate was imaged at increments of 120 minutes for a period of 48 hours, and then analyzed for relative wound healing.

For series [4], the system named is H1299 cells. Nature of the series: Cytotoxicity and cell viability, H1299 cells. In kind it is cell-based, human. Details: Cell viability: dose or concentration left out as unconfirmed.
Series [5] concerns Kras protein in H1299 cells. Nature of the series: Western blot of Kras protein in H1299 cells. In kind it is cell-based, human. The following applies: H1299, 10 and 20 μM 7773, 48 hours. The method, then: Western blots were performed as previously described. For fluorescent westerns, cell lysates were prepared with phosphatase inhibitors (β-Glycerophosphate and Sodium orthovanadate) and a protease inhibitor (cOmplete™, Mini Protease Inhibitor Cocktail, Roche 04693124001), membranes were read using a Li-Core Odyssey laser scanner, and results analyzed using Image Studio Lite software.
The following primary antibodies were used: mouse anti-total ERK (p44/42 MAPK (Erk1/2) L34F12 Cell Signaling 4696s), mouse anti-Kras (CPTC-KRAS4B-2, DSHB) rabbit anti-dpERK, (p44/42 MAPK, Cell Signaling 4370), rabbit anti-alpha/beta tubulin (Cell Signaling 2148), goat anti-rabbit IgG-HRP (Jackson), goat anti-mouse IgG-HRP (Jackson). Secondary antibodies for fluorescent westerns: donkey anti-mouse 800 (Rockland 610-732-124), goat anti-rabbit 680 (Molecular Probes A21076).

Sequence of La binding to Bcl2 RNA (P05455 whole entry): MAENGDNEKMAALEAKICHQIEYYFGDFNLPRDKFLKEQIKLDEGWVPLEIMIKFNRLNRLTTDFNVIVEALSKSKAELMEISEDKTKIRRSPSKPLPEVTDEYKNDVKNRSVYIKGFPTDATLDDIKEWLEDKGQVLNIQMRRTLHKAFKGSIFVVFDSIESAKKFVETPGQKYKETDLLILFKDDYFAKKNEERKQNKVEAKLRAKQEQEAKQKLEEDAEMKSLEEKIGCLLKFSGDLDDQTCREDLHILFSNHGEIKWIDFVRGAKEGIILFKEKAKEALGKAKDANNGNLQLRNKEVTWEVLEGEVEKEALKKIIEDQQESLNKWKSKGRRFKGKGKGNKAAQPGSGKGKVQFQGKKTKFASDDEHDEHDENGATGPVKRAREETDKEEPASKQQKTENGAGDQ

`O=C(c1ccc(Cn2cnnn2)cc1)N1CCCC(Nc2ccc3c(c2)OCO3)C1` (stereo not shown) [Compound 7773]: the Cell proliferation result in the series with H1299 cells [1] is “remarkably unaffected”. The “Effect on control RBP (La) binding to its target (Bcl2 RNA)” value at La binding to Bcl2 RNA (FP) is given as “almost no effect”. The IC50 at La binding to Bcl2 RNA (FP control, n=3, read-out: IC50 for inhibition of La binding to Bcl2 RNA) is more than 100 µM; in series [2] it was ~30 µM and 15 to 36 µM. Moreover, the dissociation constant Kd on Igf2bp1 KH34 di-domain came out at 7.2 µM. For the same molecule, the “Inhibition of wound healing” value in the series on H1299 cells [3] (H1299, 5 mM 7773) is “discernible inhibition”; in the series with H1299 cells [3] (H1299, 20 mM 7773), “strongly inhibited”. For the same molecule, in the series on H1299 cells [4] (H1299, 20, 10 or 5 mM 7773, 48 hours), the Cytotoxicity entry is “virtually no effect”. For the same molecule, the Cell viability result with H1299 cells [4] (H1299, 7773, 48 hours) is “does not affect”. In addition, the Kras protein expression result in series [5] is “dose-dependent reduction”.
